Assays:
Format in all cases: physicochemical
[1] = Evaluation of light resistance of optically anisotropic layer; settings: rate of change in Re of layer (25 parts compound/75 parts L-1) after xenon irradiation 50 hours, 63° C., 50% RH, oxygen-blocking
Procedure: (§1) As shown below, the durability of the optically anisotropic layer produced using the composition containing each of the compounds A-1 and A-3 to A-20, and the compounds RA-1 and RA-2 was evaluated.
(§2) A coating composition having the following composition was prepared and applied by spin coating onto a rubbing-treated glass attached with an alignment film.
(§3) The polymerizable liquid crystal compound L-1 is a mixture obtained by mixing at a ratio of the following L-1-1/L-1-2/L-1-3=84/14/2 (in terms of mass ratio).
The produced optically anisotropic layers for light resistance/durability tests were irradiated with light using a Super Xenon Weather Meter SX75 manufactured by Suga Test Instruments Co., Ltd. Using KU-1000100 manufactured by King Seisakusho Co., Ltd. as an ultraviolet ray cut filter, irradiation with 5 million 1× of light was carried out for 50 hours under the oxygen-blocking conditions to carry out a light resistance test. The temperature of the specimen to be tested (the temperature inside the test device) was set to 63° C. The relative humidity in the test device was 50% RH.
The Re of the optically anisotropic layer before and after the light resistance test was measured, the light resistance in a case where the rate of change in Re described below was less than 10% was evaluated as A, and the light resistance in a case where the rate of change in Re was 10% or more was evaluated as B. The smaller the rate of change in Re, the more excellent the light resistance.
(§4) Re is an in-plane retardation. Rate of change in Re (%)=[100×{|(Re after test)−(Re before test)|}/(Re before test)]
(§5) Re was measured with Axoscan manufactured by Axometrics, Inc. at a wavelength of 550 nm, and the measurement temperature was set to room temperature.

[2] = Evaluation of liquid crystallinity (hot stage, polarization microscope); set-up: key: A case of having liquid crystallinity was evaluated as A; a case of having no liquid crystallinity was evaluated as B; settings: heated on a hot stage
Text: As a specific observation method, optical anisotropy and fluidity derived from the liquid crystal phase can be checked by carrying out an observation under a polarization microscope while heating or lowering the temperature of the compound with a hot stage or the like.
The respective compounds of Examples and Comparative Examples (the compounds A-1, A-3 to A-20, and the compounds RA-1 and RA-2) were heated on a hot stage and observed with a polarization microscope, and the phase transition temperature was measured to evaluate the presence or absence of liquid crystallinity. A case of having liquid crystallinity was evaluated as A, and a case of having no liquid crystallinity was evaluated as B. The results are shown in Table 1.

[3] = Evaluation of solubility in methyl ethyl ketone; settings: precipitation concentration in methyl ethyl ketone at room temperature (25° C.)
Procedure: The solubility of each of the compounds of Examples and Comparative Examples (the compounds A-1, A-3 to A-20, and the compounds RA-1 and RA-2) in methyl ethyl ketone was evaluated. A solution in which the compound was ultrasonically dissolved or dissolved by heating was produced.

[4] = Evaluation of durability (moisture-heat resistance test) of optically anisotropic layer; settings: rate of change in Re of layer (25 parts compound/75 parts L-1) after 136 hours at 100° C., 95% RH
Procedure: as §1, §2, §3, §4, §5
The produced optically anisotropic layer was allowed to be left for 136 hours at 100° C. and a relative humidity of 95% RH, whereby a moisture-heat resistance test was carried out. The rate of change in Re before and after the durability test was evaluated, the durability in a case where the rate of change in Re was less than 10% was evaluated as A, and the durability in a case where the rate of change in Re was 10% or more was evaluated as B. The smaller the rate of change in Re, the more excellent the durability.

[5] = Measurement of Δn (refractive index anisotropy), wedge-shaped liquid crystal cell; settings: 550 nm, 30° C. or lower limit temperature of nematic phase+0 to 10° C.; some extrapolated from 1/2 mixture with L-1-1
Procedure: The Δn of each of the compounds of Examples and Comparative Examples (the compounds A-1, A-3 to A-20, and the compounds RA-1 and RA-2), which are the compounds to be measured, was measured by a method using a wedge-shaped liquid crystal cell described on page 202 in the Liquid crystal handbook (edited by the liquid crystal handbook editorial board, published by Maruzen Co., Ltd., 2000). An was defined as a measured value at a wavelength of 550 nm at 30° C. or the lower limit temperature of the nematic phase+0° C. to 10° C. In a case of a compound which is liable to crystallize or a compound having no liquid crystallinity, evaluation was carried out using a mixture thereof with the other liquid crystal compound, and Δn was estimated from the extrapolated value of the measured value thereof. The following L-1-1 was used as the other liquid crystal compound. As the above mixture, a mixture obtained by mixing at a ratio of the compound to be measured/the L-1-1=1/2 (in terms of mass ratio) was used.
A case where Δn was 0.35 or more was evaluated as A, a case where Δn was 0.32 or more and less than 0.35 was evaluated as B, a case where Δn was 0.30 or more and less than 0.32 was evaluated as C, and a case where Δn was less than 0.30 was evaluated as D. The results are shown in Table 1.

Row | SMILES | Light resistance [1] | Liquid crystallinity [2] | Solubility [3] | Durability [4] | Δn [5]
1 | CC(=O)OCCCCCCCCCCOc1ccc(C#Cc2ccc(OC(=O)c3ccc(C#Cc4ccc(OCCCCCCCCCCOC(C)=O)c(F)c4)cc3)cc2)cc1F [RA-1, reference compound] | B (the light resistance in a case where the rate of change in Re was 10% or more was evaluated as B) | A | B (the solubility in a case where the precipitation concentration was less than 10% by mass was evaluated as B) | A (the durability in a case where the rate of change in Re was less than 10% was evaluated as A) | D (a case where Δn was less than 0.30 was evaluated as D)
2 | C=CC(=O)OCCCCSc1ccc(C#Cc2ccc(NC(=O)c3ccc(SCCCCOC(=O)C=C)cc3)c(C(F)(F)F)c2)cc1 [RA-2, reference compound] | B (the light resistance in a case where the rate of change in Re was 10% or more was evaluated as B) | A | B (the solubility in a case where the precipitation concentration was less than 10% by mass was evaluated as B) | A (the durability in a case where the rate of change in Re was less than 10% was evaluated as A) | C (a case where Δn was 0.30 or more and less than 0.32 was evaluated as C)

Source: patent publication US12054660B2, “Compound, composition, cured substance, optically anisotropic body, optical element, and light guide element” (FUJIFILM Corporation, priority 2021, dated 2024)
